Assay results: patent US8017611B2, “Pyridine and pyrazine derivatives -083” (AstraZeneca AB, priority 2007, dated 2011)
Marks after values point to notes of the source that are not given here.

target: T1, recombinant Axl tyrosine kinase (Homo sapiens, UniProt P30530); test: In vitro Axl kinase assay (AlphaScreen), Test (a); format: biochemical; conditions: 1 μM; mean calculated from a larger number of replicates than the first value
T1 construct: encompassing amino acids 473 to 894 of Axl; GST (N); made in house; host or cells: SF126 insect cells
T1 sequence (P30530 473-894): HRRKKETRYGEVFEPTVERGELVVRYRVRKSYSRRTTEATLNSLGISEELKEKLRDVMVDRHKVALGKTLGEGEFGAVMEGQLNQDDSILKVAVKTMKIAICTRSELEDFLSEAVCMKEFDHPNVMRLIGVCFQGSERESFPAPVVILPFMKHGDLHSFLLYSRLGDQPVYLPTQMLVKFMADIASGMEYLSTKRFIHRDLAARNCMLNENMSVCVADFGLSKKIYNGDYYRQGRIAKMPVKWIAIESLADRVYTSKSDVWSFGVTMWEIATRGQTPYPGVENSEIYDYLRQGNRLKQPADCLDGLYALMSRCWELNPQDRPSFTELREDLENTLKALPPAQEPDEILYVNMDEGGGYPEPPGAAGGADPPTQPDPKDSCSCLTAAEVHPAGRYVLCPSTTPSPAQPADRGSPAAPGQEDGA
Description: Test compounds were prepared as 10 mM stock solutions in dimethylsulphoxide (DMSO) and diluted in DMSO as required. Aliquots (120 nl) of compound dilutions were filled into the wells of a Greiner 384-well low volume (LV) white polystyrene plate (Greiner Bio-one) using acoustic dispensing (Labcyte Echo 550). A 10 μl mixture of recombinant purified Axl enzyme, biotinylated peptide substrate (Biotin poly-GAT; CisBio, Catalogue No. 61GATBLB), 0.2 μM adenosine triphosphate (ATP) and a buffer solution [comprising 20 mM Tris-HCl pH 7.5 buffer, 0.01% v/v Tween, 5 mM dithiothreitol (DTT) and 10 mM manganese chloride] was incubated with the compounds at room temperature for 20 minutes.
Control wells that produced a minimum signal corresponding to 100% inhibited enzyme were created by adding 10 μM of Staurosporine.
The percentage kinase inhibition value is the percentage of Axl tyrosine kinase activity inhibited by the test compound at a concentration of 1 μM.

First: Nc1ncc(-c2ccc(N3CCNCC3)nc2)nc1-c1nc2ccccc2o1 [Example 20.3]
Second: Nc1ncc(-c2cccc(N3CCOCC3)c2)cc1-c1nc2ccccc2o1 [Example 2.49]
The “% Axl tyrosine kinase inhibition at 1 μM concentration (second value, †)” value of the first is higher: 98.7% for the first, 94.5% for the second.

same assay, conditions: 1 μM; mean calculated from a larger number of replicates than the first value; read-out: % Axl tyrosine kinase inhibition at 1 μM concentration (second value, †)

`CC(C)(C)OC(=O)N1CCC(n2cc(-c3cnc(N)c(-c4nc5ccccc5s4)c3)cn2)CC1` [Example 13, tert-butyl 4-[4-[6-Amino-5-(1,3-benzothiazol-2-yl)-3-pyridyl]pyrazol-1-yl]piperidine-1-carboxylate] was tested, and the inhibition at 1 µM was 99%.

same assay, conditions: test compound at 1 μM; first value quoted

First: N#CCc1ccc(-c2cnc(N)c(-c3nc4ccccc4o3)c2)cc1 [Example 2.51]
Second: Nc1ncc(-c2ccc(CO)cc2)cc1-c1nc2ccccc2o1 [Example 2.16]
The “% Axl tyrosine kinase inhibition at 1 μM concentration” value of the first is lower: 93.1% for the first, 94.0% for the second.

Going from `N#Cc1cccc(-c2cnc(N)c(-c3nc4ccccc4o3)c2)c1` [Example 2.40] to `N#Cc1ccc(-c2cnc(N)c(-c3nc4ccccc4o3)c2)cc1` [Example 2.44], the “% Axl tyrosine kinase inhibition at 1 μM concentration” value falls from 40.7% to 25.0%.

First: Nc1ncc(-c2cnn(C3CCOCC3)c2)cc1-c1nc2ccccc2o1 [Example 27.7]
Second: Nc1ncc(-c2cnn(C3CCCNC3)c2)cc1-c1nc2ccccc2o1 (stereo not drawn) [Example 29.6]
The “% Axl tyrosine kinase inhibition at 1 μM concentration” value of the first is lower: 99.8% for the first, 99.9% for the second.

Compared with `CN1CCC(n2cc(-c3cnc(N)c(-c4nc5cnccc5o4)c3)cn2)CC1` [Example 41.1], `CN1CCC(n2cc(-c3cnc(N)c(-c4nc5cccc(F)c5o4)c3)cn2)CC1` [Example 41.10] is lower in “% Axl tyrosine kinase inhibition at 1 μM concentration” value: 99.8% for the first, 99.7% for the second.

First: Nc1ncc(-c2ccc(CO)s2)cc1-c1nc2cnccc2o1 [Example 8A.5]
Second: Nc1ncc(-c2ccc(C(=O)NCCO)cc2)cc1-c1nc2cnccc2o1 [Example 8A.25]
The “% Axl tyrosine kinase inhibition at 1 μM concentration” value of the first is lower: 96.8% for the first, 98.7% for the second.

First: Nc1ncc(-c2ccc(C(=O)NCCCN3CCNCC3)cc2)cc1-c1nc2cccnc2o1 [Example 45A.101]
Second: Nc1ncc(-c2ccc(C(=O)NCCCN3CCCC3)cc2)cc1-c1nc2cccnc2o1 [Example 45A.6]
The “% Axl tyrosine kinase inhibition at 1 μM concentration” value of the first is higher: 99.1% for the first, 97.4% for the second.

Going from `CN1CCC(n2cc(-c3cnc(N)c(-c4nc5c(F)cccc5o4)c3)c(C(=O)N(C)C)n2)CC1` [Example 41.37] to `Cc1nn(C2CCN(C)CC2)cc1-c1cnc(N)c(-c2nc3cccnc3o2)c1` [Example 41.20], the “% Axl tyrosine kinase inhibition at 1 μM concentration” value rises from 99.5% to 99.7%.

`COc1cc(-c2cnc(N)c(-c3nc4ncccc4o3)c2)ccc1OCC1CCCN(C)C1` (stereo not drawn) [Example 43C.12] and `COc1cc(-c2cnc(N)c(-c3nc4ncccc4o3)c2)ccc1OC[C@H]1CCCN1` [Example 43C.24] are the same in “% Axl tyrosine kinase inhibition at 1 μM concentration” value: 99.6% for the first, 99.6% for the second.

Compared with `Nc1ncc(-c2ccc(N3CCNCC3)nc2)nc1-c1nc2ccccc2o1` [Example 20.3], `Nc1ncc(-c2cccc(N3CCOCC3)c2)nc1-c1nc2ccccc2o1` [Example 20.8] is lower in “% Axl tyrosine kinase inhibition at 1 μM concentration” value: 99.3% for the first, 98.9% for the second.

`CN(C)c1nn(C2CCNCC2)cc1-c1cnc(N)c(-c2nc3ccccc3o2)c1` [Example 62.3] and `Cc1nn(C2CCNCC2)cc1-c1cnc(N)c(-c2nc3ncccc3o2)c1` [Example 25.16] are the same in “% Axl tyrosine kinase inhibition at 1 μM concentration” value: 99.9% for the first, 99.9% for the second.

Going from `COc1cc(-c2cnc(N)c(-c3nc4ncccc4o3)c2)ccc1OCCN1CCCCC1` [Example 43C.8] to `COc1cc(-c2cnc(N)c(-c3nc4ncccc4o3)c2)ccc1OCCN(C)C` [Example 43C.3], the “% Axl tyrosine kinase inhibition at 1 μM concentration” value falls from 99.9% to 99.4%.

First: Nc1ncc(-c2ccc(C(=O)NCCN3CCC(F)(F)C3)cc2)cc1-c1nc2cccnc2o1 [Example 45A.37]
Second: Nc1ncc(-c2ccc(C(=O)NCCN3CCCCCC3)cc2)cc1-c1nc2cccnc2o1 [Example 45A.32]
The “% Axl tyrosine kinase inhibition at 1 μM concentration” value of the first is lower: 92.2% for the first, 99.6% for the second.

Going from `Nc1ncc(-c2ccc(C(=O)N3CCC(O)CC3)cc2)cc1-c1nc2ncccc2o1` [Example 10A.13] to `Nc1ncc(-c2ccc(C(=O)N3CCC(N)CC3)cc2)cc1-c1nc2cccnc2o1` [Example 45A.107], the “% Axl tyrosine kinase inhibition at 1 μM concentration” value rises from 91.1% to 95.0%.

First: CCN1CCC(CNC(=O)c2ccc(-c3cnc(N)c(-c4nc5cccnc5o4)c3)cc2)CC1 [Example 45A.47]
Second: CN1CCC(N(C)C(=O)c2ccc(-c3cnc(N)c(-c4nc5cccnc5o4)c3)cc2)CC1 [Example 45A.31]
The “% Axl tyrosine kinase inhibition at 1 μM concentration” value of the first is higher: 96.1% for the first, 95.9% for the second.

First: NCc1cccc(-c2cnc(N)c(-c3nc4ccccc4o3)c2)c1 [Example 2.4]
Second: Nc1ncc(-c2cccc(CO)c2)cc1-c1nc2ccccc2o1 [Example 2.35]
The “% Axl tyrosine kinase inhibition at 1 μM concentration” value of the first is higher: 99.1% for the first, 93.3% for the second.

Compared with `CN(C)CCNC(=O)c1cccc(-c2cnc(N)c(-c3nc4cccnc4o3)c2)c1` [Example 9A.5], `NCc1ccc(-c2cnc(N)c(-c3nc4cccnc4o3)c2)cc1` [Example 9A.13] is higher in “% Axl tyrosine kinase inhibition at 1 μM concentration” value: 75.2% for the first, 98.3% for the second.

First: COCc1ccc(-c2cnc(N)c(-c3nc4ccccc4o3)c2)cc1 [Example 2.37]
Second: CN(C)CCCOc1ccc(-c2cnc(N)c(-c3nc4ccccc4o3)c2)cn1 [Example 2.26]
The “% Axl tyrosine kinase inhibition at 1 μM concentration” value of the first is lower: 91.9% for the first, 99.5% for the second.

First: CN(C)C(=O)CN1CCC(n2cc(-c3cnc(N)c(-c4nc5ccccc5o4)c3)cn2)CC1 [Example 53.8]
Second: CN1CCN(c2ccc(-c3cnc(N)c(-c4nc5ccccc5o4)c3)cn2)CC1 [Example 2.54]
The “% Axl tyrosine kinase inhibition at 1 μM concentration” value of the first is higher: 99.9% for the first, 99.8% for the second.

First: NC(=O)CCN1CCN(C(=O)c2ccc(-c3cnc(N)c(-c4nc5cccnc5o4)c3)cc2)CC1 [Example 45A.71]
Second: CNC1CCC(NC(=O)c2ccc(-c3cnc(N)c(-c4nc5cccnc5o4)c3)cc2)CC1 (stereo not drawn) [Example 45A.99]
The “% Axl tyrosine kinase inhibition at 1 μM concentration” value of the first is lower: 93.7% for the first, 95.9% for the second.

First: CCN(CC)CCCOc1ccc(-c2cnc(N)c(-c3nc4ncccc4o3)c2)cc1OC [Example 43C.18]
Second: CN[C@H]1COCC[C@H]1Oc1ccc(-c2cnc(N)c(-c3nc4ncccc4o3)c2)cc1OC [Example 43C.37]
The “% Axl tyrosine kinase inhibition at 1 μM concentration” value of the first is higher: 99.8% for the first, 99.4% for the second.

`Nc1ncc(-c2cccc(N3CCOCC3)c2)cc1-c1nc2ccccc2o1` [Example 2.49] was tested, and the “% Axl tyrosine kinase inhibition at 1 μM concentration” value was 93.6%.

For `Cc1ccc(S(=O)(=O)N2CCOCC2)cc1-c1cnc(N)c(-c2nc3cnccc3o2)c1` [Example 8A.10], the “% Axl tyrosine kinase inhibition at 1 μM concentration” value was 13.1***** %.

same assay, conditions: test compound at 1 μM; first value quoted; read-out: % Axl tyrosine kinase inhibition at 1 μM concentration

First: Nc1ncc(-c2cccc(S(=O)(=O)CCC3CCNCC3)c2)cc1-c1nc2ccccc2o1 [Example 46, 3-(1,3-Benzoxazol-2-yl)-5-[3-[2-(4-piperidyl)ethylsulphonyl]phenyl]pyridin-2-amine]
Second: COCc1nn(C2CCNCC2)cc1-c1cnc(N)c(-c2nc3ccccc3o2)c1 [Example 25.14, 3-(1,3-benzoxazol-2-yl)-5-[3-(methoxymethyl)-1-(4-piperidyl)pyrazol-4-yl]pyridin-2-amine]
The inhibition at 1 µM of the first is lower: 95.9% for the first, 100% for the second.

Compared with `CN(C)CC(=O)N1CCC(n2cc(-c3cnc(N)c(-c4nc5ncccc5o4)c3)cn2)CC1` [Example 58, 1-[4-[4-(6-amino-5-oxazolo[4,5-b]pyridin-2-yl-3-pyridyl)pyrazol-1-yl]-1-piperidyl]-2-dimethylamino-ethanone], `CC(C)(C)OC(=O)N1CCC(n2cc(-c3cnc(N)c(-c4nc5ccccc5s4)c3)cn2)CC1` [Example 13, tert-butyl 4-[4-[6-Amino-5-(1,3-benzothiazol-2-yl)-3-pyridyl]pyrazol-1-yl]piperidine-1-carboxylate] is lower in inhibition at 1 µM: 99.5% for the first, 95.4% for the second.

First: CNC(=O)[C@@H]1C[C@@H](n2cc(-c3cnc(N)c(-c4nc5ccccc5o4)c3)cn2)CN1 [Example 51, (2S,4R)-4-[4-[6-amino-5-(1,3-benzoxazol-2-yl)-3-pyridyl]pyrazol-1-yl]-N-methyl-pyrrolidine-2-carboxamide]
Second: Nc1ncc(-c2cnn(C3CCNCC3)c2)nc1-c1nc2ccccc2o1 [Example 17, 3-(1,3-Benzoxazol-2-yl)-5-[1-(4-piperidyl)pyrazol-4-yl]pyrazin-2-amine]
The inhibition at 1 µM of the first is higher: 99.9% for the first, 99.6% for the second.

Work on `COc1cc(N2CCN(C)CC2)ccc1-c1cnc(N)c(-c2nc3ncccc3o2)c1` [Example 25.6, 5-[2-methoxy-4-(4-methylpiperazin-1-yl)phenyl]-3-oxazolo[4,5-b]pyridin-2-yl-pyridin-2-amine] yielded an inhibition at 1 µM of 99.5%.

same assay, conditions: test compound at 30 μM

In the case of `Cc1ccc(S(=O)(=O)N2CCOCC2)cc1-c1cnc(N)c(-c2nc3cnccc3o2)c1` [Example 8A.10], the “% of Axl tyrosine kinase activity inhibited at a concentration of 30 μM” value is reported as “*****the compound disclosed in Example 8A.10 inhibited 79.5% of Axl tyrosine kinase activity at a concentration of 30 μM”.
With `CS(=O)(=O)c1cccc(-c2cnc(N)c(-c3nc4cnccc4o3)c2)c1` [Example 8A.3] the “% of Axl tyrosine kinase activity inhibited at a concentration of 30 μM” value was “^###the compound disclosed in Example 8A.3 inhibited 100% of Axl tyrosine kinase activity at a concentration of 30 μM”.
